Patent US20030207400A1, “Vectors for dna delivery” (priority 2003, published 2003)

Test system: plasmid pCMV/mEPO
Assay: Gel electrophoresis of complexes of plasmid and fluorescently labelled polyamides
Format: binding
Details: agarose gel, after 10 min or 5 hr incubation; control rhodamine-peptide
Method: The ability of the polyamides to bind the DNA plasmid was assessed by gel electrophoresis of complexes of plasmid and fluorescently labelled polyamides.
A plasmid pCMV/mEPO was constructed by inserting the mouse EPO (mEPO) coding sequence as a EcoRI-BamHI 0.6 Kb fragment into pViJnsB (Montgomery, D. L., Shiver J. W., Leander K. R., Perry, H. C., Friedman, A., Martinez, D., Ulmer, J. B., Donnelly, J. J., Liu, M. A. (1993) DNA Cell. Biol. 12, 777-783.), which contains the CMV immediate/early region promoter and enhancer with intron A followed by the BGH polyadenylation signal. The mouse EPO coding region including 40 bp of the 5′ untranslated region (Shoemaker, C. B., & Mitsock, L. D. (1986) Mol. Cell. Biol. 6, 849-858) was assembled from synthetic oligonucleotides as described (Stemmer, W. P. C, Crameri, A., Ha, K. D., Brennan, T. M., & Heyneker, H. L. (1995) Gene 164, 49-53.).
In a typical experiment either the rhodamine labelled polyamide (33), the peptide-polyamide (35) and the correspondent rhodamine-peptide as control, were dissolved in DMSO at a 0.55 mM concentration. Serial dilutions of the polyamides and the peptide were prepared in DMSO. The plasmid stock solution was 0.54 μM. […]

Rhodamine-Aoc-Pro-Lys-Lys-Lys-Arg-Lys-Val-Gluu-Asp-Pro-Tyr-Lys(Br—CH2—CO)-Gly-Gly-CO—NH2 [compound 34]
co-migration of the fluorescent label with the plasmid: does not co-migrate with the plasmid
